Assay results from patent publication US20120004235A1, “METHODS TO TREAT CANCER” (Rutgers, The State University of New Jersey, priority 2009, published 2012).

Assays:
[1] = In vivo pharmacokinetics (Example 22); details: in vivo in mouse, rat and dog
Experimental: The in vitro and in vivo activity of compound 2 and two of its metabolites (compound 5 and compound 6) were explored and compared with the activity of camptothecin Top1 inhibitors. […] In human HCT-116 colon ca, HT-29 colon ca and NCI-H460 NSCLC cells the concentration response for compound 2, compound 5 and compound 6 were the same. […] Compound 2 was administered intravenously on a QODx3 schedule for 2 cycles.

[2] = tested on: Human HCT-116 Colon Tumor Xenograft Model; experiment: Test D xenograft, Compound 2 and metabolites; details: 1.7 mg/kg/day IV, qod × 3 for 2 cycles
[3] = tested on: Human NCI-H292 Lung Tumor Xenograft Model; experiment: Test D xenograft, Compound 2 free base; details: for Increase in Life Span (ILS) / Tumor Growth Delay T-C / Tumor Growth Inhibition T/C (tumor volume): qod × 3 for 2 cycles
[4] = tested on: RPMI-8226 Human Multiple Myeloma; experiment: Human tumor cell CFU assay (Test B); format: cell-based; details: Homo sapiens, RPMI-8226; colony formation in agar, continuous exposure 7-9 days
Experimental: (§1) For human tumor cell CFU assays, the cell lines which grow as monolayers, MDA-MB-231, HCT116, HT29, NCI-H460, KB3-1 and KBV-1 were grown in RPMI medium (Invitrogen/Gibco, Grand Island, N.Y.) supplemented with 5% fetal bovine serum (Invitrogen/Gibco, Grand Island, NY). The RPMI-8226 cell line grows in suspension.
For human tumor cell CFU assays, RPMI-8226 cells were grown in 0.35% agar in DMEM-F12 medium supplemented with 10% fetal bovine serum over a base layer of 0.5% agar in DMEM-F12 medium supplemented with 10% fetal bovine serum
(§2) For experiments, human tumor cells (1 103) were plated in 6-well plates in medium supplemented with 5% or 10% fetal bovine serum. The compounds were tested in concentrations over the range from 0.01 to 100 nanomolar in half-log intervals covering […] along with untreated control wells. In later experiments some cases the concentration ranges were refined to focus on the region of interest in the response curves. Each compound concentration was tested in duplicate wells. Cultures were exposed to the compounds continuously for 7-9 days at 37° C. in a humidified atmosphere of 5% carbon dioxide balance air. Each experiment was performed three independent times. Colonies were defined as clusters containing 30 or more cells.
(§3) The values were expressed as the mean values with lower and upper 95% confidence intervals in nanomolar concentrations.

[5] = tested on: Human HCT-15 Colon Tumor Xenograft Model; experiment: Test D xenograft, Compound 2 free base; format: in vivo, nu/nu mice; details: for Increase in Life Span (ILS) / Tumor Growth Delay T-C / Tumor Growth Inhibition T/C (tumor volume): qod × 3 for 2 cycles
[6] = Half-life in nude mice (Example 22); format: in vivo; details: for half-life: mouse, in vivo, nude mice
Experimental: The in vitro and in vivo activity of compound 2 and two of its metabolites (compound 5 and compound 6) were explored and compared with the activity of camptothecin Top1 inhibitors. […] In human HCT-116 colon ca, HT-29 colon ca and NCI-H460 NSCLC cells the concentration response for compound 2, compound 5 and compound 6 were the same. […]. Compound 2 was administered intravenously on a QODx3 schedule for 2 cycles.

[7] = tested on: NCI-H460 Human Non-small Cell Lung Carcinoma; experiment: Human tumor cell CFU assay (Test B); format: cell-based; details: Homo sapiens, NCI-H460, colony formation, continuous exposure 7-9 days
Experimental: as §1, §2
(§4) For the monolayer cultures, colonies were visualized by staining with a preformulated crystal violet solution (Fisher Cat #291-472) which contained 0.41% crystal violet, 12% ethanol balance deionized water. To visualize the colonies, the medium was removed by aspiration; the monolayer was rinsed once with phosphate buffered saline which was removed by aspiration. Three drops of crystal violet solution was added to each well and the 6-well plate was rotated so that the crystal violet solution covered the surface area of each well. After 5 minutes exposure time, the wells were rinsed twice with phosphate buffered saline and the colonies were visible.
as §3

[8] = tested on: MDA-MB-231 Human Breast Carcinoma; experiment: Human tumor cell CFU assay (Test B); format: cell-based; details: Homo sapiens, MDA-MB-231, colony formation, continuous exposure 7-9 days
Experimental: as §1, §2, §4, §3

[9] = tested on: HT29 Human Colon Carcinoma; experiment: Human tumor cell CFU assay (Test B); format: cell-based; details: Homo sapiens, HT-29, colony formation, continuous exposure 7-9 days
Experimental: as §1, §2, §4, §3

[10] = tested on: HCT116 Human Colon Carcinoma; experiment: Human tumor cell CFU assay (Test B); format: cell-based; details: Homo sapiens, HCT-116, colony formation, continuous exposure 7-9 days
Experimental: as §1, §2, §4, §3

[11] = tested on: KBH5.0 BCRP+ KB3-1 Subline; experiment: Human tumor cell CFU assay (Test B); format: cell-based; details: Homo sapiens, KB 3-1, colony formation, continuous exposure 7-9 days
Experimental: as §1, §2, §4, §3

[12] = tested on: KB-V1 MDR1+ KB3-1 Subline; experiment: Human tumor cell CFU assay (Test B); format: cell-based; details: Homo sapiens; colony formation, continuous exposure 7-9 days
Experimental: as §1, §2, §4, §3

[13] = tested on: KB3-1 HeLa Human Cervical Carcinoma; experiment: Human tumor cell CFU assay (Test B); format: cell-based; details: Homo sapiens, colony formation, continuous exposure 7-9 days
Experimental: as §1, §2, §4, §3

[14] = tested on: Human DLD-1 Colon Tumor Xenograft Model; experiment: Test D xenograft, Compound 2 free base; format: in vivo, nu/nu mice
[15] = tested on: Human LOX-IMVI Melanoma Tumor Xenograft Model; experiment: Test D xenograft, Compound 2 free base; details: qod × 3 for 2 cycles
[16] = high dosage, IV QODx3 for 2 cycles
[17] = read-out: IC50 Values (95% Lower and Upper Confidence Intervals)
[18] = read-out: IC90 Values (95% Lower and Upper Confidence Intervals)
[19] = 1 mg/kg/day IV, qod × 3 for 2 cycles
[20] = 4 mg/kg/day IV/QODx3 for 2 cycles

CNCCn1c(=O)c2cc(OC)c(OC)cc2c2cnc3cc4c(cc3c21)OCO4 [Compound 2, 8,9-dimethoxy-2,3-methylenedioxy-5-[2-(N-methylamino)ethyl]-5H-dibenzo[c,h]1,6-naphthyridin-6-one]
clearance [1]: low-to-moderate clearance
volume of distribution [1]: large volume of distribution
Increase in Life Span (ILS) [2]: 1.9x
Tumor Growth Delay T-C [2]: 28 days
Tumor Growth Inhibition T/C (tumor volume) [2]: 36.4%
Increase in Life Span (ILS) ([3]; 1 mg/kg/day IV): 1.5x
Tumor Growth Delay T-C ([3]; 1 mg/kg/day IV): 18 days
Tumor Growth Inhibition T/C (tumor volume) ([3]; 1 mg/kg/day IV): 29.4%
Increase in Life Span (ILS) ([3]; 1.36 mg/kg/day IV): 1.6x
Tumor Growth Delay T-C ([3]; 1.36 mg/kg/day IV): 21 days
Tumor Growth Inhibition T/C (tumor volume) ([3]; 1.36 mg/kg/day IV): 25.2%
Increase in Life Span (ILS) ([3]; 1.7 mg/kg/day IV): 1.6x
Tumor Growth Delay T-C ([3]; 1.7 mg/kg/day IV): 21 days
Tumor Growth Inhibition T/C (tumor volume) ([3]; 1.7 mg/kg/day IV): 15.2%
maximum body weight loss [3, 16]: 20.9%
IC50 [4]: 0.2 nM
IC90 [4]: 0.8 nM
Increase in Life Span (ILS) ([5]; 1 mg/kg/day IV): 1.3x
Tumor Growth Delay T-C ([5]; 1 mg/kg/day IV): 14 days
Tumor Growth Inhibition T/C (tumor volume) ([5]; 1 mg/kg/day IV): 37.1%
Increase in Life Span (ILS) ([5]; 2 mg/kg/day IV): 1.8x
Tumor Growth Delay T-C ([5]; 2 mg/kg/day IV): 35 days
Tumor Growth Inhibition T/C (tumor volume) ([5]; 2 mg/kg/day IV): 8.6%
maximum body weight loss [5, 16]: 25.7%
half-life ([6]; ip): 10.4 h
half-life ([6]; iv): 5.1 h
half-life ([6]; po): 3.6 h
t1/2 ([6]; tumor-bearing mice, compared with nude mice): longer
IC50 [7, 17]: 1.2 nM
IC90 [7, 18]: 5 nM
IC50 [8, 17]: 0.2 nM
IC90 [8, 18]: 0.7 nM
IC50 [9, 17]: 0.15 nM
IC90 [9, 18]: 0.9 nM
IC50 [10, 17]: 0.9 nM
IC90 [10, 18]: 2.8 nM
IC90 [11]: 3 nM
IC50 [11, 17]: 1 nM
IC50 [12]: 2 nM
IC90 [12]: 8.3 nM
IC50 [13]: 1.7 nM
IC90 [13, 18]: 7.7 nM
Increase in Life Span (ILS) [14, 19]: 1.2x
Tumor Growth Delay T-C [14, 19]: 8 days
Tumor Growth Inhibition T/C (tumor volume) [14, 19]: 51.3%
ILS (T/C) [14, 20]: 1.2x
TGD (T-C) [14, 20]: 8 days
Increase in Life Span (ILS) ([15]; 1 mg/kg/day IV): 1.1x
Tumor Growth Delay T-C ([15]; 1 mg/kg/day IV): 2 days
Tumor Growth Inhibition T/C (tumor volume) ([15]; 1 mg/kg/day IV): 89.4%
Increase in Life Span (ILS) ([15]; 2 mg/kg/day IV): 2.8x
Tumor Growth Delay T-C ([15]; 2 mg/kg/day IV): 25 days
Tumor Growth Inhibition T/C (tumor volume) ([15]; 2 mg/kg/day IV): 66.1%
Tumor Growth Inhibition T/C (tumor volume) ([15]; 4 mg/kg/day IV): 39.1%
